Experimental data: PubChem BioAssay AID2060345 (Molecular Pharmacology Branch, DTP, NCI, 2025)

Test system: MALME-3M multicell spheroids, viability
Assay: Anticancer human tumor MALME-3M cell line growth inhibition [TAK];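 note: spheroids exposed to drugs for seven days before readout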;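 for viability, T/C: 100% = DMSO vehicle control viability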
Conditions: for IC50: curve of first compound; for viability, T/C: stronger effect = lower value
In short: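 Drug combinations, each paired with TAK-243 or ipatasertib, were tested on multi-cell spheroids of 60% malignant cells, 25% HUVEC and 15% hMSC. Top concentrations were at or near the clinical Cmax (10 microM if undetermined), decreasing by half-log; viability is given as % test/control.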

[1] = second compound 0.3 µM, first compound 0.0316 µM
[2] = second compound 0.3 µM, first compound 0.1 µM
[3] = second compound 0.3 µM, first compound 0.316 µM
[4] = second compound 0.3 µM, first compound 1 µM
[5] = second compound 0.3 µM, first compound 3.16 µM
[6] = second compound 0.3 µM, first compound 10 µM
[7] = second compound 0.949 µM, first compound 0.0316 µM
[8] = second compound 0.949 µM, first compound 0.1 µM
[9] = second compound 0.949 µM, first compound 0.316 µM
[10] = second compound 0.949 µM, first compound 1 µM
[11] = second compound 0.949 µM, first compound 3.16 µM
[12] = second compound 0.949 µM, first compound 10 µM
[13] = second compound 3 µM, first compound 0.0316 µM
[14] = second compound 3 µM, first compound 0.1 µM
[15] = second compound 3 µM, first compound 0.316 µM
[16] = second compound 3 µM, first compound 1 µM
[17] = second compound 3 µM, first compound 3.16 µM
[18] = second compound 3 µM, first compound 10 µM
[19] = second compound 9.49 µM, first compound 0.0316 µM
[20] = second compound 9.49 µM, first compound 0.1 µM
[21] = second compound 9.49 µM, first compound 0.316 µM
[22] = second compound 9.49 µM, first compound 1 µM
[23] = second compound 9.49 µM, first compound 3.16 µM
[24] = second compound 9.49 µM, first compound 10 µM
[25] = second compound 30 µM, first compound 0.0316 µM
[26] = second compound 30 µM, first compound 0.1 µM
[27] = second compound 30 µM, first compound 0.316 µM
[28] = second compound 30 µM, first compound 1 µM
[29] = second compound 30 µM, first compound 3.16 µM
[30] = second compound 30 µM, first compound 10 µM
[31] = second compound 0.3 µM, first compound 0.00316 µM
[32] = second compound 0.3 µM, first compound 0.01 µM
[33] = second compound 0.949 µM, first compound 0.00316 µM
[34] = second compound 0.949 µM, first compound 0.01 µM
[35] = second compound 3 µM, first compound 0.00316 µM
[36] = second compound 3 µM, first compound 0.01 µM
[37] = second compound 9.49 µM, first compound 0.00316 µM
[38] = second compound 9.49 µM, first compound 0.01 µM
[39] = second compound 30 µM, first compound 0.00316 µM
[40] = second compound 30 µM, first compound 0.01 µM

Work on `CC(C)(C)c1nc(-c2cccc(NS(=O)(=O)c3c(F)cccc3F)c2F)c(-c2ccnc(N)n2)s1` + CC(C)NCC(C(=O)N1CCN(c2ncnc3c2C(C)CC3O)CC1)c1ccc(Cl)cc1 yielded an IC50 (second compound 0.3 µM) of less than 31.6 nM, an IC50 (second compound 0.949 µM) of less than 31.6 nM and an IC50 (second compound 3 µM) of less than 31.6 nM. The IC50 (second compound 9.49 µM) was less than 31.6 nM, the IC50 (second compound 30 µM) was less than 31.6 nM and the viability, T/C [1] was 26.6%. For the same compound, the viability, T/C [2] was 23.6%, the viability, T/C [3] was 25% and the viability, T/C [4] was 25.8%. It also gave a viability, T/C [5] of 22.2%, a viability, T/C [6] of 29.6% and a viability, T/C [7] of 27.1%. It also gave a viability, T/C [8] of 26.2%, a viability, T/C [9] of 23.2% and a viability, T/C [10] of 24.8%. The viability, T/C [11] was 20.6%, the viability, T/C [12] was 26.2% and the viability, T/C [13] was 25.4%. The viability, T/C [14] was 26.8%, the viability, T/C [15] was 21.3% and the viability, T/C [16] was 20.1%. For the same compound, the viability, T/C [17] was 15.4%, the viability, T/C [18] was 21.5% and the viability, T/C [19] was 23%. The viability, T/C [20] was 21%, the viability, T/C [21] was 19.5% and the viability, T/C [22] was 15.6%. The viability, T/C [23] was 14.1%, the viability, T/C [24] was 17.1% and the viability, T/C [25] was 17.1%. The viability, T/C [26] was 18.4%, the viability, T/C [27] was 18.5% and the viability, T/C [28] was 11.4%. It also gave a viability, T/C [29] of 8.12% and a viability, T/C [30] of 11.6%.
Work on `CC(C)n1nc(-c2ccc3oc(N)nc3c2)c2c(N)ncnc21` + CC(C)NCC(C(=O)N1CCN(c2ncnc3c2C(C)CC3O)CC1)c1ccc(Cl)cc1 yielded an IC50 (second compound 0.3 µM) of 12.1 nM, an IC50 (second compound 0.949 µM) of 7.82 nM and an IC50 (second compound 3 µM) of 5.3 nM. For the same compound, the IC50 (second compound 9.49 µM) was 1.81 nM, the IC50 (second compound 30 µM) was less than 0.316 nM and the viability, T/C (second compound 0.3 µM, first compound 0.000316 µM) was 87.8%. For the same compound, the viability, T/C (second compound 0.3 µM, first compound 0.001 µM) was 76.1%, the viability, T/C [31] was 69.3% and the viability, T/C [32] was 55.7%. The viability, T/C [1] was 31.3%, the viability, T/C [2] was 11.2% and the viability, T/C (second compound 0.949 µM, first compound 0.000316 µM) was 81.6%. The viability, T/C (second compound 0.949 µM, first compound 0.001 µM) was 74.7%, the viability, T/C [33] was 65.6% and the viability, T/C [34] was 46.6%. For the same compound, the viability, T/C [7] was 23.1%, the viability, T/C [8] was 10% and the viability, T/C (second compound 3 µM, first compound 0.000316 µM) was 67.6%. It also gave a viability, T/C (second compound 3 µM, first compound 0.001 µM) of 61.1%, a viability, T/C [35] of 52.4% and a viability, T/C [36] of 45.8%. For the same compound, the viability, T/C [13] was 14.5%, the viability, T/C [14] was 6.89% and the viability, T/C (second compound 9.49 µM, first compound 0.000316 µM) was 62%. The viability, T/C (second compound 9.49 µM, first compound 0.001 µM) was 56.7%, the viability, T/C [37] was 43.7% and the viability, T/C [38] was 22.5%. The viability, T/C [19] was 9.06%, the viability, T/C [20] was 4.23% and the viability, T/C (second compound 30 µM, first compound 0.000316 µM) was 36.5%. For the same compound, the viability, T/C (second compound 30 µM, first compound 0.001 µM) was 37.5%, the viability, T/C [39] was 28.6% and the viability, T/C [40] was 17.2%. It also gave a viability, T/C [25] of 8.52% and a viability, T/C [26] of 4.01%.
In the case of `CCCS(=O)(=O)Nc1ccc(F)c(C(=O)c2c[nH]c3ncc(-c4ccc(Cl)cc4)cc23)c1F` + CC(C)NCC(C(=O)N1CCN(c2ncnc3c2C(C)CC3O)CC1)c1ccc(Cl)cc1, the IC50 (second compound 0.3 µM) is reported as less than 316 nM, the IC50 (second compound 0.949 µM) is reported as less than 316 nM and the IC50 (second compound 3 µM) is reported as less than 316 nM. For the same compound, the IC50 (second compound 9.49 µM) was less than 316 nM, the IC50 (second compound 30 µM) was less than 316 nM and the viability, T/C [3] was 29.3%. For the same compound, the viability, T/C [4] was 21.5%, the viability, T/C [5] was 23.6% and the viability, T/C [6] was 19.3%. For the same compound, the viability, T/C (second compound 0.3 µM, first compound 31.6 µM) was 0.51%, the viability, T/C (second compound 0.3 µM, first compound 100 µM) was 11.1% and the viability, T/C [9] was 31.8%. For the same compound, the viability, T/C [10] was 25.8%, the viability, T/C [11] was 23.6% and the viability, T/C [12] was 22.1%. The viability, T/C (second compound 0.949 µM, first compound 31.6 µM) was 2.72%, the viability, T/C (second compound 0.949 µM, first compound 100 µM) was 12.1% and the viability, T/C [15] was 30%. It also gave a viability, T/C [16] of 24.9%, a viability, T/C [17] of 21.4% and a viability, T/C [18] of 15.9%. For the same compound, the viability, T/C (second compound 3 µM, first compound 31.6 µM) was 1.69%, the viability, T/C (second compound 3 µM, first compound 100 µM) was 3.88% and the viability, T/C [21] was 24.8%. For the same compound, the viability, T/C [22] was 20.6%, the viability, T/C [23] was 17.9% and the viability, T/C [24] was 10.8%. It also gave a viability, T/C (second compound 9.49 µM, first compound 31.6 µM) of 0.89%, a viability, T/C (second compound 9.49 µM, first compound 100 µM) of 1.65% and a viability, T/C [27] of 15.1%. The viability, T/C [28] was 16.4%, the viability, T/C [29] was 9.92% and the viability, T/C [30] was 0.89%. The viability, T/C (second compound 30 µM, first compound 31.6 µM) was 0.35% and the viability, T/C (second compound 30 µM, first compound 100 µM) was 0.54%.
`COc1c(OCCCN2CCOCC2)ccc2c3n(c(=NC(=O)c4cnc(N)nc4)nc12)CCN3` + CC(C)NCC(C(=O)N1CCN(c2ncnc3c2C(C)CC3O)CC1)c1ccc(Cl)cc1 gave an IC50 (second compound 0.3 µM) of 125 nM, an IC50 (second compound 0.949 µM) of 109 nM and an IC50 (second compound 3 µM) of 66.2 nM. The IC50 (second compound 9.49 µM) was 41.4 nM, the IC50 (second compound 30 µM) was 5.9 nM and the viability, T/C [31] was 109%. The viability, T/C [32] was 96.3%, the viability, T/C [1] was 76.3% and the viability, T/C [2] was 62.2%. The viability, T/C [3] was 23.1%, the viability, T/C [4] was 12.3% and the viability, T/C [33] was 98.4%. It also gave a viability, T/C [34] of 95%, a viability, T/C [7] of 76.2% and a viability, T/C [8] of 55.3%. It also gave a viability, T/C [9] of 22.3%, a viability, T/C [10] of 11.7% and a viability, T/C [35] of 82.3%. The viability, T/C [36] was 81.8%, the viability, T/C [13] was 63.1% and the viability, T/C [14] was 43.6%. For the same compound, the viability, T/C [15] was 16.7%, the viability, T/C [16] was 10.6% and the viability, T/C [37] was 69.8%. It also gave a viability, T/C [38] of 72.8%, a viability, T/C [19] of 54.2% and a viability, T/C [20] of 31.3%. For the same compound, the viability, T/C [21] was 15.3%, the viability, T/C [22] was 11.8% and the viability, T/C [39] was 45.8%. For the same compound, the viability, T/C [40] was 56.7%, the viability, T/C [25] was 39.3% and the viability, T/C [26] was 26.5%. It also gave a viability, T/C [27] of 10.6% and a viability, T/C [28] of 6.33%.
`Cc1nc(NC(=O)N2CCCC2C(N)=O)sc1-c1ccnc(C(C)(C)C(F)(F)F)c1` (stereo not given) + CC(C)NCC(C(=O)N1CCN(c2ncnc3c2C(C)CC3O)CC1)c1ccc(Cl)cc1 was tested, and the IC50 (second compound 0.3 µM) was greater than 10000 nM, the IC50 (second compound 0.949 µM) was greater than 10000 nM and the IC50 (second compound 3 µM) was greater than 10000 nM. The IC50 (second compound 9.49 µM) was 4310 nM, the IC50 (second compound 30 µM) was 355 nM and the viability, T/C [1] was 110%. The viability, T/C [2] was 104%, the viability, T/C [3] was 97.7% and the viability, T/C [4] was 88.1%. It also gave a viability, T/C [5] of 72.5%, a viability, T/C [6] of 59.1% and a viability, T/C [7] of 107%. It also gave a viability, T/C [8] of 103%, a viability, T/C [9] of 86.3% and a viability, T/C [10] of 90.7%. For the same compound, the viability, T/C [11] was 75.5%, the viability, T/C [12] was 55.4% and the viability, T/C [13] was 94.3%. The viability, T/C [14] was 88.6%, the viability, T/C [15] was 79.3% and the viability, T/C [16] was 75.2%. It also gave a viability, T/C [17] of 73.8%, a viability, T/C [18] of 53% and a viability, T/C [19] of 79.4%. It also gave a viability, T/C [20] of 73%, a viability, T/C [21] of 67.1% and a viability, T/C [22] of 67.5%. The viability, T/C [23] was 54.8%, the viability, T/C [24] was 37.4% and the viability, T/C [25] was 56.3%. The viability, T/C [26] was 59.1%, the viability, T/C [27] was 47.1% and the viability, T/C [28] was 42%. The viability, T/C [29] was 40% and the viability, T/C [30] was 22%.
